In ChEMBL document CHEMBL5034019, “Discovery of the Next-Generation Pan-TRK Kinase Inhibitors for the Treatment of Cancer” (J Med Chem, 2021):
One block for each molecule: values may come before it. Calls of active or inactive are those of the source. The calls are words filed in the database; no cut-off is given here.

Key:
[1] = target: Focal adhesion kinase 1 (Homo sapiens) (UniProt Q05397); assay: Inhibition of recombinant human FAK (411 to 686 residues) assessed as residual activity at 0.5 uM using EEEEYEEEEEEYYIIEEEEEEYEEEEEEYYEEEEEEKKKK as substrate at 40 mins in presence of [gamma-33ATP] by scintillation counting based radiometry assay relative to control
[2] = target: Proto-oncogene tyrosine-protein kinase ROS (Homo sapiens, UniProt P08922)
Description: Inhibition of ROS1 (unknown origin) incubated for 120 mins in presence of 33P-ATP

[3] = test system: Hepatocyte growth factor receptor (Homo sapiens), P08581 [D1246H]; assay: Inhibition of recombinant human Met D1246H mutant (974 to end residues) assessed as residual activity at 0.5 uM using KKKGQEEEYVFIE as substrate incubated for 40 mins in presence of [gamma-33P]-ATP by scintillation counting method relative to control
[4] = C0 in female Sprague-Dawley rat at 2 mg/kg, iv measured up to 24 hrs by LC/MS/MS analysis; assay type: ADME, organism-based; conditions: in vivo
BaF3 [5] = assay: Antitumor activity against mouse BaF3 cells transfected with LMNA-NTRK1 xenografted in mouse assessed as tumor growth inhibition at 5 to 20 mg/kg, po administered once daily for 21 days and measured twice weekly; conditions: dose 5-20 mg/kg, time 21.0 day
[6] = test system: Mast/stem cell growth factor receptor Kit (Homo sapiens), P10721 [D816V]; assay: Inhibition of recombinant human C-Kit D816V mutant (544 to end residues) assessed as residual activity at 0.5 uM poly(Glu, Tyr) 4:1 as substrate incubated 40 mins in presence of [gamma-33ATP] by scintillation counting based radiometry assay relative to control
[7] = AUC (0 to t) in female Sprague-Dawley rat at 10 mg/kg, po measured up to 24 hrs by LC-MS/MS analysis; assay type: ADME, organism-based; design: route oral, dose 10 mg/kg, time <=24; conditions: in vivo
[8] = test system: Hepatocyte growth factor receptor (Homo sapiens), P08581 [Y1248C]; assay: Inhibition of recombinant human Met Y1248C mutant (974 to end residues) assessed as residual activity at 0.5 uM using KKKGQEEEYVFIE as substrate incubated for 40 mins in presence of [gamma-33P]-ATP by scintillation counting method relative to control
[9] = Toxicity in mouse xenografted with mouse BaF3 cells transfected with LMNA-NTRK1-G595R mutant assessed as weight loss at 20 mg/kg, po administered once daily for 21 days and measured twice weekly; conditions: in vivo, 504 h
[10] = target: Fibroblast growth factor receptor 2 (Homo sapiens) (UniProt P21802); assay: Inhibition of recombinant human FGFR2 (456 to 770 residues) assessed as residual activity at 0.5 uM using poly(Glu, Tyr) 4:1 as substrate at 40 mins in presence of [gamma-33ATP] by scintillation counting based radiometry assay relative to control
[11] = Volume of distribution in male Sprague-Dawley rat at 2 mg/kg, iv measured up to 24 hrs by LC-MS/MS analysis; assay type: ADME, organism-based; conditions: in vivo
[12] = target: ALK tyrosine kinase receptor (Homo sapiens, UniProt Q9UM73); assay: Inhibition of human ALK (1058 to end residues) assessed as residual activity at 0.5 uM using KKKSPGEYVNIEFG as substrate incubated for 40 mins in presence of [gamma-33ATP] by scintillation counting based radiometry assay relative to control
[13] = test system: Hepatocyte growth factor receptor (Homo sapiens), P08581 [Y1248D]; assay: Inhibition of recombinant human Met Y1248D mutant (974 to end residues) assessed as residual activity at 0.5 uM using KKKGQEEEYVFIE as substrate incubated for 40 mins in presence of [gamma-33P]-ATP by scintillation counting method relative to control
[14] = Clearance in female Sprague-Dawley rat at 2 mg/kg, iv measured up to 24 hrs by LC/MS/MS analysis; assay type: ADME, organism-based; conditions: in vivo
[15] = test system: Mast/stem cell growth factor receptor Kit (Homo sapiens), P10721 [V654A]; assay: Inhibition of recombinant human C-Kit V654A mutant (544 to end residues) assessed as residual activity at 0.5 uM poly(Glu, Tyr) 4:1 as substrate incubated 40 mins in presence of [gamma-33ATP] by scintillation counting based radiometry assay relative to control
[16] = target: Platelet-derived growth factor receptor alpha (Homo sapiens) (UniProt P16234); assay: Inhibition of human PDGFRalpha (550 to end residues) assessed as residual activity at 0.5 uM poly(Glu, Tyr) 4:1 as substrate measured after 40 mins in presence of [gamma33P]ATP by scintillation counting method relative to control
[17] = Toxicity in mouse xenografted with mouse BaF3 cells transfected with LMNA-NTRK1 assessed as weight loss at 100 mg/kg, po administered once daily for 21 days and measured twice weekly; conditions: in vivo, 504 h
[18] = Toxicity in […] xenografted with mouse BaF3 cells transfected with LMNA-NTRK1-G595R mutant assessed as death at 100 mg/kg, po administered once daily for 21 days and measured twice weekly; assay type: organism-based; conditions: in vivo, 504 h, time 21 day
[19] = AUC (0 to t) in Sprague-Dawley rat at 3 mg/kg measured up to 24 hrs by LC-MS/MS analysis; assay type: ADME, organism-based; design: dose 3 mg/kg, time <=24; conditions: in vivo
[20] = Oral bioavailability in Sprague-Dawley rat at 10 mg/kg measured up to 24 hrs by LC/MS/MS analysis; assay type: ADME, organism-based; conditions: in vivo
[21] = Cmax in Sprague-Dawley rat at 10 mg/kg, po measured up to 24 hrs by LC-MS/MS analysis; assay type: ADME, organism-based; design: route oral, dose 10 mg/kg, time <=24; conditions: in vivo
[22] = Volume of distribution in Sprague-Dawley rat at 3 mg/kg measured up to 24 hrs by LC-MS/MS analysis; assay type: ADME, organism-based; conditions: in vivo
[23] = Toxicity in mouse xenografted with mouse BaF3 cells transfected with LMNA-NTRK1 assessed as unkempt appearance at 100 mg/kg, po administered once daily for 21 days and measured twice weekly; conditions: in vivo, 504 h
[24] = Toxicity in mouse xenografted with mouse BaF3 cells transfected with ETV6-NTRK3-G623R mutant assessed as unkempt appearance at 100 mg/kg, po administered once daily for 21 days and measured twice weekly; conditions: in vivo, 504 h
KM12 = assay: Antiproliferative activity against TrK fused human KM12 cells; assay type: functional, cell-based
BaF3 [25] = assay: Antitumor activity against mouse BaF3 cells transfected with ETV6-NTRK3-G623R mutant xenografted in mouse assessed as tumor growth inhibition at 100 mg/kg, po administered once daily for 21 days and measured twice weekly; conditions: time 21.0 day
[26] = Half life in Sprague-Dawley rat at 3 mg/kg measured up to 24 hrs by LC-MS/MS analysis; assay type: ADME, organism-based; conditions: in vivo

Chain of ALK tyrosine kinase receptor (Q9UM73 19-1620 limits assumed): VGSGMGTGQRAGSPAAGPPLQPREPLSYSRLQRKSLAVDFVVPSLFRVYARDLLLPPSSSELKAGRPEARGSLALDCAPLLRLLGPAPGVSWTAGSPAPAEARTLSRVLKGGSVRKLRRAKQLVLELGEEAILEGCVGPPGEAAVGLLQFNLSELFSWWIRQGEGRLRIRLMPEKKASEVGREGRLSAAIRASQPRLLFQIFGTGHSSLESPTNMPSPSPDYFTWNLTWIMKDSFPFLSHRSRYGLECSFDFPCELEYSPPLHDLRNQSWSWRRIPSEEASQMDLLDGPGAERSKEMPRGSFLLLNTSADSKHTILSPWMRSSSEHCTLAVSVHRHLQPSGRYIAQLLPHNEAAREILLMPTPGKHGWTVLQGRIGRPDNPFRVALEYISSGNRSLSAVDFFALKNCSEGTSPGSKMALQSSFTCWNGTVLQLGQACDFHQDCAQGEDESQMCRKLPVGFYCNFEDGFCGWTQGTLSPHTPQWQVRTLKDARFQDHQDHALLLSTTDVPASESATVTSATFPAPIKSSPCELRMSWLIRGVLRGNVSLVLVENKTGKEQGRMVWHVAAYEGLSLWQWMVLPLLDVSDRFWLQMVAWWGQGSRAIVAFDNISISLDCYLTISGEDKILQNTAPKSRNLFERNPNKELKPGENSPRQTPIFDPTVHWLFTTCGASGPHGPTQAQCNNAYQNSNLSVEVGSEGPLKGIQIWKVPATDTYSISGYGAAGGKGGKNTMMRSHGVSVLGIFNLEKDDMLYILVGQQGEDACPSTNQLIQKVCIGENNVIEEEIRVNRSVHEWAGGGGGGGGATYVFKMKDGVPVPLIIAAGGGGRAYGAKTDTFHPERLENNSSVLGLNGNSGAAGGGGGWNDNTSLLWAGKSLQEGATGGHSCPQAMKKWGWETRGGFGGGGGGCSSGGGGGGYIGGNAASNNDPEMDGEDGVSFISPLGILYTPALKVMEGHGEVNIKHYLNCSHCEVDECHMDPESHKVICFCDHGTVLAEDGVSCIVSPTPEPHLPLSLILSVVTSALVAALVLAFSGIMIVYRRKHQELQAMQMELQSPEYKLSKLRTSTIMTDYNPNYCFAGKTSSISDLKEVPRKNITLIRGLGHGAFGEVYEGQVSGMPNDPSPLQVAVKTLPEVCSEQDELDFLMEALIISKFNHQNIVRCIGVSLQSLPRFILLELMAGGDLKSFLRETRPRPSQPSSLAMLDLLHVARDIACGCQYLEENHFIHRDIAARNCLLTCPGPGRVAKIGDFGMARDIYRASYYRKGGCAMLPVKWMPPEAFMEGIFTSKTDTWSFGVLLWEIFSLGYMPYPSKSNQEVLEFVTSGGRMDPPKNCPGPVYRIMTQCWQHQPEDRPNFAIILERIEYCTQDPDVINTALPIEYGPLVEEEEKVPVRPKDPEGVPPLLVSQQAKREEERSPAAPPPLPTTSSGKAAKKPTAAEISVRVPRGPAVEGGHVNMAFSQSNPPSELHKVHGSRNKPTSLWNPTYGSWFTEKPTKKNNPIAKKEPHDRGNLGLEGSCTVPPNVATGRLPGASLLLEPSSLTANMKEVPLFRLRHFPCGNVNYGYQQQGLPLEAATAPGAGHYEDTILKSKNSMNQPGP
Chain of Platelet-derived growth factor receptor alpha (Homo sapiens) (P16234 whole entry): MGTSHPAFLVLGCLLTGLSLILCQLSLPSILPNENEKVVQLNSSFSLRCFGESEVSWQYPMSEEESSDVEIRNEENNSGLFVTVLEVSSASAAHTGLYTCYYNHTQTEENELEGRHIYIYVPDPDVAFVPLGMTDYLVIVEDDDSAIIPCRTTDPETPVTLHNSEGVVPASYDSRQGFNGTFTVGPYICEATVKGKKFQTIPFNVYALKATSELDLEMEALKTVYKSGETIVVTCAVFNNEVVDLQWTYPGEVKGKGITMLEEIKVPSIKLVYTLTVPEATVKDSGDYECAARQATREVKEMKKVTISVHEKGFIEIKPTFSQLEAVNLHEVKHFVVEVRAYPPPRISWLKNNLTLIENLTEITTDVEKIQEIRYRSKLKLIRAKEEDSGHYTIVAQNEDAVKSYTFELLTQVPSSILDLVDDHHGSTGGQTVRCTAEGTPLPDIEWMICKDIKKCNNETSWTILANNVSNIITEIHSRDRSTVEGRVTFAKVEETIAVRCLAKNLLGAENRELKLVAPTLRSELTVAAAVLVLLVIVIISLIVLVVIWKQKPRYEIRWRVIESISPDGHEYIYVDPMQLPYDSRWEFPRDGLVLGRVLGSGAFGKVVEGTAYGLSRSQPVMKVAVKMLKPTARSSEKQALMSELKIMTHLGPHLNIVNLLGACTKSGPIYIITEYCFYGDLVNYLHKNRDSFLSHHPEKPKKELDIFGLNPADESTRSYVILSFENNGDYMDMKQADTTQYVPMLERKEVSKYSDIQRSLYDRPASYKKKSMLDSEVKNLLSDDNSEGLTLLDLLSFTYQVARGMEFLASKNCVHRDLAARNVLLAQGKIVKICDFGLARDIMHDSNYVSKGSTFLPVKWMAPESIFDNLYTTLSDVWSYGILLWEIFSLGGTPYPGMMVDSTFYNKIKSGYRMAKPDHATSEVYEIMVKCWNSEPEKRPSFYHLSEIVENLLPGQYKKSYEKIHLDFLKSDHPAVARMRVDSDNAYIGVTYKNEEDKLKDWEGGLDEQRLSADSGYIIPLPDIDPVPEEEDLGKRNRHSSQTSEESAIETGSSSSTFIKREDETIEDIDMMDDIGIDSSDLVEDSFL
Chain of Proto-oncogene tyrosine-protein kinase ROS (P08922 whole entry): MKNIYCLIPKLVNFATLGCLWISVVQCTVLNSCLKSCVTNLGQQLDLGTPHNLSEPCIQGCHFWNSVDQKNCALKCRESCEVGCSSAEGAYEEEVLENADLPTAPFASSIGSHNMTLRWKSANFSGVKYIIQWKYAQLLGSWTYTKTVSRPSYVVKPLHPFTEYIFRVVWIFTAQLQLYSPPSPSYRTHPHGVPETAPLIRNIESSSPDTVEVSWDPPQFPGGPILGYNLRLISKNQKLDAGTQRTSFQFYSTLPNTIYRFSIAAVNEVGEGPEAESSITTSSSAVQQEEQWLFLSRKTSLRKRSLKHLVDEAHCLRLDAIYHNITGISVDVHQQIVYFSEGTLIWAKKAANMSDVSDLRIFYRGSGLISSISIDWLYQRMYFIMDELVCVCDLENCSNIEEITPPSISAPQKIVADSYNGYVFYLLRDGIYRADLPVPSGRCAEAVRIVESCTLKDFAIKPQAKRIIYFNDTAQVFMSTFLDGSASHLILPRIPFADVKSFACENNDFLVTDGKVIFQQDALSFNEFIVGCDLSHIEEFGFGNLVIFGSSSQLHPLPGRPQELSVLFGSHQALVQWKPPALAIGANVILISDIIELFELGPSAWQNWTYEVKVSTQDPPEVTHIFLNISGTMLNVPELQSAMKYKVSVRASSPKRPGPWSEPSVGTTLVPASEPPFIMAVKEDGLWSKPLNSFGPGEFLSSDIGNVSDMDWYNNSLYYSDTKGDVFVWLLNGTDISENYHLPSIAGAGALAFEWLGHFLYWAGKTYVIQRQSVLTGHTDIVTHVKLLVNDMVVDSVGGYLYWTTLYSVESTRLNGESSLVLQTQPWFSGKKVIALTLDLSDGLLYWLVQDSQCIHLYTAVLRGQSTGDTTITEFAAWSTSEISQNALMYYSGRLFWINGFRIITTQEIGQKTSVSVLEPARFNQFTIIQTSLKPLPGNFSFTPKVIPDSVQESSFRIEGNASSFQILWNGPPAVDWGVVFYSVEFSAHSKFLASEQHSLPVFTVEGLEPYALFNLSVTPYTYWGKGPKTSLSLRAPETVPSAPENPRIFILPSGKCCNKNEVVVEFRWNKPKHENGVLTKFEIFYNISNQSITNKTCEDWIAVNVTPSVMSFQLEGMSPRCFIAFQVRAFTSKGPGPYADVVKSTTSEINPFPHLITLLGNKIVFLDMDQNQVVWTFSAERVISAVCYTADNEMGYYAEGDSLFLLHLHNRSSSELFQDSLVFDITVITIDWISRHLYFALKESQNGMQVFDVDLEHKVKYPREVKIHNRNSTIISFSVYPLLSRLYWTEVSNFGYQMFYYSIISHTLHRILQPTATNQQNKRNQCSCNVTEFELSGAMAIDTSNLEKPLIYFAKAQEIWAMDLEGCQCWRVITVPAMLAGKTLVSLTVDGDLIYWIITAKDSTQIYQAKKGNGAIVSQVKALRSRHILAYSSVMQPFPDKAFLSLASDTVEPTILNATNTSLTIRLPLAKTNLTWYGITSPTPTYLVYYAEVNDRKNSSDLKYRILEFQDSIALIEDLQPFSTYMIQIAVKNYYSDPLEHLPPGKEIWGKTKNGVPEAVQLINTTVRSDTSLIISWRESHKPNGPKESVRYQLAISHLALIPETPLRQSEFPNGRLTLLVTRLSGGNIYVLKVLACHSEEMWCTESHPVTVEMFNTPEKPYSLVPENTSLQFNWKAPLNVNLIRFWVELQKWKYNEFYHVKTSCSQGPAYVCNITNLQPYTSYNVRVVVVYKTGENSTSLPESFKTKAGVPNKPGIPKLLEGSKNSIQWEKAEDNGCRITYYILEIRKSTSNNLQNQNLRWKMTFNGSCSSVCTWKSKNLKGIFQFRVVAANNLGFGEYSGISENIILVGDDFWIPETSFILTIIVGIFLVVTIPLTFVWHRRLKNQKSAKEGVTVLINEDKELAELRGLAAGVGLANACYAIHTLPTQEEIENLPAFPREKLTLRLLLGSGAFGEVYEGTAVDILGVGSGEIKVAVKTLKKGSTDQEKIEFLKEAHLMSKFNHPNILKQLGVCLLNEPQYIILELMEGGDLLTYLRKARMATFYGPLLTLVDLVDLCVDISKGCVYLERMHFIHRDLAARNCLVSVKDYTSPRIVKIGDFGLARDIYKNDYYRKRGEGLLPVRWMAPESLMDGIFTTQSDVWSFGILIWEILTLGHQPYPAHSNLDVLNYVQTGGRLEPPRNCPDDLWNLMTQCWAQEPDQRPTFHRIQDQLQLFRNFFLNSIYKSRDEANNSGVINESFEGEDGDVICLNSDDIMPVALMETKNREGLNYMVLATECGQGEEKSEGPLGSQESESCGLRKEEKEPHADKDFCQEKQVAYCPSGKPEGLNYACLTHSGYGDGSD

Activity [1]: 72%
IC50 [2]: 1 nM
Activity [3]: 91%
C0 at 24 h [4]: 3.51 µM
Activity [6]: 101%
AUC(0-t) at 24 h [7]: 31.7 µM·h
Activity [8]: 85%
Activity [10]: 93%
Vd [11]: 1.39 L/kg
Activity [12]: 26%
Activity [13]: 96%
clearance [14]: 8.19 mL/min/kg
Activity [15]: 105%
Activity [16]: 106%
SMILES: O=C1NC2(CC2)COc2ncc(F)cc2[C@H]2COCCN2c2ccn3ncc1c3n2
Activity (BaF3 [5]): Active
Activity [9]: Toxic

SMILES: C[C@@H]1CCc2ncc(F)cc2[C@H]2CCCN2c2ccn3ncc(c3n2)C(=O)N1 [SELITRECTINIB]
Activity [17]: Toxic
Activity [18]: Toxic
AUC(0-t) at 24 h [19]: 11.1 µM·h
bioavailability [20]: 74%
Cmax [21]: 12.7 µM
Vd [22]: 0.5 L/kg
Activity [23]: Toxic
Activity [24]: Toxic
IC50 (KM12): ≤ 5 nM
Activity (BaF3 [25]): Active
half-life [26]: 72 min
